Source: US12540136B2, “Pyrrolopyridine derivative and use thereof” (ST PHARM CO., LTD., priority 2020, dated 2026)
Like-named read-outs stand apart in the source and are kept apart here.

Experiments:
Assay type in all cases: cell-based
HIV-1 (NL4-3) = experiment: HIV-1 (wild type) inhibitory effect, decrease in viral cytopathic effect (CPE) in MT-4 cells; conditions: Human immunodeficiency virus 1, NL43, MT4, 144 h; NL4-3 strain, MT-4 host cells, 6 days incubation, CPE reduction
Method: (§1) In order to determine the HIV-1 (Wild type) inhibitory effect of compounds of the present invention, a test was conducted as follows. The host cell was MT-4 cells and the virus strain was NL4-3 strain of HIV-1. The virus and cells were mixed in the presence of the compounds of the present invention, followed by incubation for 6 days. The antiviral effect was measured as a percentage decrease in viral cytopathic effect (CPE), and the cytotoxicity of the compounds was evaluated by MTS (CellTiter® 96 Reagent, Promega, Madison WI) dye reduction assay. 1.

[1] = Cytotoxicity, MTS dye reduction assay; conditions: human; MT-4 cells, MTS dye reduction, 6 days incubation; read-out: CC50, HIV-1(NL4-3) in MT-4 Cells
Method: as §1

MT-4 cells = experiment: Cytotoxicity, MTS dye reduction assay
Method: as §1

SMILES | EC50 (HIV-1 (NL4-3)) [µM] | CC50 at 6 days [1] [µM] | CC50 (MT-4 cells; MT-4 cells, MTS dye reduction, 6 days incubation, read-out: CC50, HIV-1(NL4-3) in MT-4 Cells) [µM] | CC50 (MT-4 cells) [µM]
CCCCCCCCCCCCCOC(=O)[C@@H](OC(C)(C)C)c1c(C)nc2c(c(C)c(C)n2Cc2cnn(C)c2)c1-c1ccc(Cl)cc1 [Example 1, Tridecyl (S)-2-(tert-butoxy)-2-(4-(4-chlorophenyl)-2,3,6-trimethyl-1-((1-methyl-1H-pyrazol-4-yl)methyl)-1H-pyrrolo[2,3-b]pyridin-5-yl)acetate] | > 10 | > 10 |  | 
Cc1nc2c(c(C)c(C)n2CC2CCO2)c(-c2ccc(Cl)cc2)c1[C@H](OC(C)(C)C)C(=O)OCc1oc(=O)oc1C (stereo partly drawn) [Example 2, (5-Methyl-2-oxo-1,3-dioxol-4-yl)methyl (2S)-2-(tert-butoxy)-2-(4-(4-chlorophenyl)-2,3,6-trimethyl-1-(oxetan-2-ylmethyl)-1H-pyrrolo[2,3-b]pyridin-5-yl)acetate] | 0.12 | > 10 |  | 
COCCn1c(C)c(C)c2c(-c3ccc(Cl)cc3)c([C@H](OC(C)(C)C)C(=O)OCc3oc(=O)oc3C)c(C)nc21 [Example 3, (5-Methyl-2-oxo-1,3-dioxol-4-yl)methyl (S)-2-(tert-butoxy)-2-(4-(4-chlorophenyl)-1-(2-methoxyethyl)-2,3,6-trimethyl-1H-pyrrolo[2,3-b]pyridin-5-yl)acetate] | 0.0227 | > 10 |  | 
Cc1nc2c(c(C)c(C)n2Cc2cnn(C)c2)c(-c2ccc(Cl)cc2)c1[C@H](OC(C)(C)C)C(=O)OCc1oc(=O)oc1C [Example 4, (5-Methyl-2-oxo-1,3-dioxol-4-yl)methyl (S)-2-(tert-butoxy)-2-(4-(4-chlorophenyl)-2,3,6-trimethyl-1-((1-methyl-1H-pyrazol-4-yl)methyl)-1H-pyrrolo[2,3-b]pyridin-5-yl)acetate] | 0.00527 | > 10 |  | 
Cc1nc2c(c(C)c(C)n2Cc2cnn(C)c2)c(-c2ccc(Cl)cc2)c1[C@H](OC(C)(C)C)C(N)=O [Example 5, (S)-2-(tert-butoxy)-2-(4-(4-chlorophenyl)-2,3,6-trimethyl-1-((1-methyl-1H-pyrazol-4-yl)methyl)-1H-pyrrolo[2,3-b]pyridin-5-yl)acetamide] | > 10 | > 10 |  | 
Cc1nc2c(c(C)c(C)n2Cc2cnn(C)c2)c(-c2ccc(Cl)cc2)c1[C@@H](C#N)OC(C)(C)C [Example 6, (S)-2-(tert-butoxy)-2-(4-(4-chlorophenyl)-2,3,6-trimethyl-1-((1-methyl-1H-pyrazol-4-yl)methyl)-1H-pyrrolo[2,3-b]pyridin-5-yl)acetonitrile] | > 10 | > 10 |  | 
Cc1nc2c(c(C)c(C)n2Cc2cnn(C)c2)c(-c2ccc(Cl)cc2)c1[C@H](OC(C)(C)C)c1nnn[nH]1 [Example 7, (S)-5-(tert-butoxy(1H-tetrazol-5-yl)methyl)-4-(4-chlorophenyl)-2,3,6-trimethyl-1-((1-methyl-1H-pyrazol-4-yl)methyl)-1H-pyrrolo[2,3-b]pyridine] | 0.361 | > 10 |  | 
CNC(=O)[C@@H](OC(C)(C)C)c1c(C)nc2c(c(C)c(C)n2Cc2cnn(C)c2)c1-c1ccc(Cl)cc1 [Example 8, (S)-2-(tert-butoxy)-2-(4-(4-chlorophenyl)-2,3,6-trimethyl-1-((1-methyl-1H-pyrazol-4-yl)methyl)-1H-pyrrolo[2,3-b]pyridin-5-yl)-N-methylacetamide] |  | 4.98 |  | 
CONC(=O)[C@@H](OC(C)(C)C)c1c(C)nc2c(c(C)c(C)n2Cc2cnn(C)c2)c1-c1ccc(Cl)cc1 [Example 9, (S)-2-(tert-butoxy)-2-(4-(4-chlorophenyl)-2,3,6-trimethyl-1-((1-methyl-1H-pyrazol-4-yl)methyl)-1H-pyrrolo[2,3-b]pyridin-5-yl)-N-methoxyacetamide] |  | 8.89 |  | 
CON(C)C(=O)[C@@H](OC(C)(C)C)c1c(C)nc2c(c(C)c(C)n2Cc2cnn(C)c2)c1-c1ccc(Cl)cc1 [Example 10, (S)-2-(tert-butoxy)-2-(4-(4-chlorophenyl)-2,3,6-trimethyl-1-((1-methyl-1H-pyrazol-4-yl)methyl)-1H-pyrrolo[2,3-b]pyridin-5-yl)-N-methoxy-N-methylacetamide] | > 10 | > 10 |  | 
Cc1nc2c(c(C)c(C)n2Cc2cnn(C)c2)c(-c2ccc(Cl)cc2)c1[C@H](OC(C)(C)C)C(=O)NO [Example 11, (S)-2-(tert-butoxy)-2-(4-(4-chlorophenyl)-2,3,6-trimethyl-1-((1-methyl-1H-pyrazol-4-yl)methyl)-1H-pyrrolo[2,3-b]pyridin-5-yl)-N-hydroxyacetamide] |  | 3.16 |  | 
Cc1nc2c(c(C)c(C)n2Cc2cnn(C)c2)c(-c2ccc(Cl)cc2)c1[C@H](OC(C)(C)C)/C(N)=N/O [Example 12, (S,Z)-2-(tert-butoxy)-2-(4-(4-chlorophenyl)-2,3,6-trimethyl-1-((1-methyl-1H-pyrazol-4-yl)methyl)-1H-pyrrole[2,3-b]pyridin-5-yl)-N′-hydroxyacetimidamide] |  |  | > 10 | 
Cc1nc([C@@H](OC(C)(C)C)c2c(C)nc3c(c(C)c(C)n3Cc3cnn(C)c3)c2-c2ccc(Cl)cc2)no1 [Example 13, (S)-3-(tert-butoxy (4-(4-chlorophenyl)-2,3,6-trimethyl-1-((1-methyl-1-1H-pyrazol-4-yl)methyl)-1H-pyrrolo[2,3-b]pyridin-5-yl)methyl)-5-methyl-1,2,4-oxadiazole] |  |  |  | > 10
Cc1nc2c(c(C)c(C)n2Cc2cnn(C)c2)c(-c2ccc(Cl)cc2)c1[C@H](OC(C)(C)C)C(=O)Nc1nn[nH]n1 [Example 14, (S)-2-(tert-butoxy)-2-(4-(4-chlorophenyl)-2,3,6-trimethyl-1-((1-methyl-1H-pyrazol-4-yl)methyl)-1H-pyrrolo[2,3-b]pyridin-5-yl)-N-(2H-tetrazol-5-yl)acetamide] | > 10 | > 10 |  | 
COC(=O)OCOC(=O)[C@@H](OC(C)(C)C)c1c(C)nc2c(c(C)c(C)n2Cc2cnn(C)c2)c1-c1ccc(Cl)cc1 [Example 15, ((Methoxycarbonyl)oxy)methyl (S)-2-(tert-butoxy)-2-(4-(4-chlorophenyl)-2,3,6-trimethyl-1-((1-methyl-1H-pyrazol-4-yl)methyl)-1H-pyrrolo[2,3-b]pyridin-5-yl)acetate] | 0.0316 | > 10 |  | 
COCCOCCOC(=O)[C@@H](OC(C)(C)C)c1c(C)nc2c(c(C)c(C)n2Cc2cnn(C)c2)c1-c1ccc(Cl)cc1 [Example 16, 2-(2-Methoxyethoxy)ethyl (S)-2-(tert-butoxy)-2-(4-(4-chlorophenyl)-2,3,6-trimethyl-1-((1-methyl-1H-pyrazol-4-yl)methyl)-1H-pyrrolo[2,3-b]pyridin-5-yl)acetate] | > 10 | > 10 |  | 
